In article PMC6429502, “Synthesis and AChE-Inhibitory Activity of New Benzimidazole Derivatives” (Molecules, 2019):
Entries after “also recorded” stand apart in the source; their conditions may differ. Read-outs that look alike come from different tables or passages of the source.

What was measured:
Type in all cases: biochemical
AChE [1] = biological target: T1, AChE (Electrophorus electricus, UniProt O42275); experiment: Enzyme kinetic studies of AChE inhibition (Lineweaver-Burk plots, secondary plots); settings: 2 × IC50, IC50 and IC50/2, substrate 600 µM to 18.75 µM
T1 sequence (O42275 24-633): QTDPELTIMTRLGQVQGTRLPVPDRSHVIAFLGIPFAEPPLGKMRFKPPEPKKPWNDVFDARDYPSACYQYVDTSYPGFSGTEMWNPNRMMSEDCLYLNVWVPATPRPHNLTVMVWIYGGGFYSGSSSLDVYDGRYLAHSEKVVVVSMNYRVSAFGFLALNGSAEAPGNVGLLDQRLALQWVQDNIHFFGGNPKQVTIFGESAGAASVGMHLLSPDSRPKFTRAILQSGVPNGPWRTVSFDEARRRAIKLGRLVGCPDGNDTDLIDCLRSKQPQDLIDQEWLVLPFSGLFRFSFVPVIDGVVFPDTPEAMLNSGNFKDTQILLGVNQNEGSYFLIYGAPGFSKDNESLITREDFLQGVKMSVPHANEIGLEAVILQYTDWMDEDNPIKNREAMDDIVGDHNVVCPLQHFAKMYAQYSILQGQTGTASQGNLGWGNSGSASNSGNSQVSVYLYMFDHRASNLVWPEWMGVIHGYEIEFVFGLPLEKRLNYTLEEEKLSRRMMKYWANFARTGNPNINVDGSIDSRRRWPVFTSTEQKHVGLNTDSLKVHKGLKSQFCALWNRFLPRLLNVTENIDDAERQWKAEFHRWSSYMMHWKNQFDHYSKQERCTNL
Method: Enzyme kinetic studies were carried out in order to determine the mechanism of AChE inhibition. The type of inhibition was forecast using linear Lineweaver-Burk plots. […] The initial velocity measurements were recorded by using different substrate concentrations ranging from 600 µM to 18.75 µM for AChE enzyme. The secondary plots of the Km/Vmax (slope) versus varying concentrations were used to calculate Ki (intercept on the x-axis) values of compounds [35]. The graphical analyses of the steady-state inhibition data for AChE enzyme are shown in Figure 1 and Figure 2, respectively.
Reversible inhibition consists of the following subtypes: mixed-type, competitive, uncompetitive, or noncompetitive. These types of inhibition can be determined with the help of Lineweaver-Burk plots. […] Namely, both compounds can bind to the free enzyme or the enzyme-substrate complex. […] It is known that these interactions occur quickly and can be easily reversed. Therefore, the enzyme and inhibitor complex is rapidly degraded immediately prior to irreversible inhibition. […] As a result, enzyme kinetics studies have shown the biological importance of compounds 3d and 3h due to their mixed type forces, unlike irreversible enzyme inhibitors.
Enzyme kinetic studies were performed for compounds 3d and 3h in order to determine the inhibition type on AChE. […]

BChE = tested on: BChE
Method: New benzimidazole-triazole derivatives were designed, synthesized, and evaluated for their potential to inhibit AChE and BChE. First, all the synthesized compounds were tested at 10^−3 M and 10^−4 M concentrations.
The inhibitory activities of the compounds against AChE and BChE were determined in 96-well plates by modified Ellman’s method as defined in our previous studies. Donepezil and tacrine were used as reference drugs. A robotic system, Biotek Precision XS (Winooski, VT, USA), was used for all pipetting processes in the enzyme inhibition assay. Measurements of the percentage inhibition were carried out at 412 nm by using a BioTek-Synergy H1 microplate reader (Winooski, VT, USA). Inhibition potencies of synthesized compounds and IC50 of selected derivatives were calculated as reported previously.

AChE [2] = biological target: T1, AChE; experiment: AChE inhibition, modified Ellman's method

Cn1c(SCC(=O)c2ccc(O)c(O)c2)nnc1-c1ccc(-c2nc3cc(Cl)ccc3[nH]2)cc1 [3d, 2-(4-(4-Methyl-5-(2-(3,4-dihydroxyphenyl)-2-oxo-ethylthio)-4H-1,2,4-triazol-3yl)-phenyl)-5(6)-chloro-1H-benzimidazole]
type of AChE inhibition (AChE [1]): mixed type inhibition; also recorded: reversible inhibitors; also recorded: reversible and mixed-type
% Inhibition BChE (BChE; 10^−3 M): 51.19 ± 0.99%
% Inhibition BChE (BChE; 10^−4 M): 38.12 ± 0.41%
% Inhibition AChE (AChE [2]; 10^−3 M): 98.55 ± 1.17%
% Inhibition of AChE (AChE [2]; 10^−5 M): 87.26 ± 1.28%
% Inhibition of AChE (AChE [2]; 10^−6 M): 78.85 ± 1.19%
% Inhibition of AChE (AChE [2]; 10^−7 M): 67.18 ± 0.92%
% Inhibition of AChE (AChE [2]; 10^−8 M): 45.32 ± 0.82%
% Inhibition of AChE (AChE [2]; 10^−9 M): 15.75 ± 0.48%
